Each structure is given as a SMILES string.

The subject of one assay is C6 rat astrocytoma. Briefly: Cell viability, C6 cells. Type of assay: cell-based. The conditions noted are these: read-out: reduction of cell viability. The source says:
Rat glioma C6 and human glioblastoma U251 cell lines were a kind gift from Dr. Pedro Tranque (Universidad de Castilla-La Mancha, Albacete, Spain), murine melanoma B 16, and human adenocarcinoma HeLa, were a kind gift from Dr. Sinisa Radulovic (Institute for Oncology and Radiology of Serbia, Belgrade, Serbia) while mouse fibrosarcoma L929 was obtained from the European Collection of Animal Cell Cultures (Salisbury, UK). Human breast HCC1419 and prostate PC-3 cells were purchased from LGC Promochem srl (Venezia, Italy). Primary mouse fibroblasts and rat astrocytes were prepared as described (Mijatovic et al. 2004). […]
Reduction of 3-4,5-dimethylthiazol-2-yl)-2,5-diphenyltetrazolium bromide (MTT) to formazan depends on mitochondrial activity of cultured cells, absorption of crystal violet dye correlates with the number of adherent, live cells, while the release of cytosolic lactate dehydrogenase (LDH) indicates the disruption of membrane integrity caracteristic for necrotic cells. […] Mitohondrial-dependent production of formazan and intensity of absorbed crystal violet by adherent cells were assessed by an automated microplate reader at 570 nm, while the pyruvate-mediated conversion of 2,4-dinitrophenylhydrazine into visible hydrazone precipitate in LDH assay was measured at 492 nm. […]
FIG. 2. […] Cell viability was then evaluated by CV test. […]

Another assay deals with B16 cells. Briefly: Cyclin D3 and p53 expression (cELISA, immunocytochemistry, Western blot), B16. Type of assay: cell-based, mouse. The settings on record: 18.8 μM, 24 h (Western blot 4 h). From the text: A slightly modified method for cell-based ELISA (cELISA) by Versteeg (Versteed et al., 2000) was used to measure the expression of galactocerebroside, glial fibrilar acidic protein (GFAP), myelin basic protein (MBP), cyclin D3, p53 and p-AKT. Briefly, at the end of cultivation period cells were fixed in 4% paraformaldehyde, endogenous peroxydase was quenched with 1% H2O2 in PBS containing 0.1% Triton X-100 (PBST), and unspecific binding of antibodies blocked with PBST solution containing 10% FCS. […] The absorbance at 450 nm was measured in an automated microplate reader 15 min after incubation with peroxydase substrate TMB and subsequently to addition of 0.1 M HCl. To facilitate comparison between treatments, the obtained absorbances were corrected for the cell number that was determined by crystal violet staining, as described in the original protocol.
The detection of expression of cyclin D3 and p53 expression was performed by the immunocytochemical procedure as previously described (Mijatovic et al, 2005). The cells were cultivated in glass chamber-slides (3×10^4 cells/well) and cyclin D3 and p53 expression were detected with specific antibodies against cyclin D3 (1:1000, Santa Cruz Biotechnology, Santa Cruz, Calif.) and p53 (1:500, Santa Cruz Biotechnology, Santa Cruz, Calif.). […]

Consider `CC(C)(C)NC(=O)[C@@H]1C[C@@H]2CCCC[C@@H]2CN1C[C@@H](O[N+](=O)[O-])[C@H](Cc1ccccc1)NC(=O)[C@H](CC(N)=O)NC(=O)c1ccc2ccccc2n1` [Saq-NO2, nitric ester of Saquinavir], for which the cytotoxicity at 18.8 µM with C6 rat astrocytoma was around 50%. In the assay on B16 cells, the “cyclin D3 expression” value is on record as “not considerably changed” and the p53 expression result is listed as “much higher extent than Saq”.

For the origin of these results see patent publication US8563578B2, “Antitumor properties of NO modified protease inhibitors” (Onconox APS, priority 2008, dated 2013).
